# Source: patent US9040693B2, “Fused heterocyclic derivative, medicinal composition containing the same, and medicinal use thereof” (KISSEI PHARMACEUTICAL CO., LTD., priority 2005, dated 2015)
# Key:
# [1] = target: human GnRH receptor1 (GnRHR1) (Homo sapiens (Human), UniProt P30968); experiment: Assay of GnRH antagonizing effect: inhibition of GnRH-stimulated intracellular calcium flux in HEK293 cells transiently expressing human GnRHR1; type: cell-based; settings: 5 nM GnRH, FLIPR calcium dye, read-out: IC50 (drug concentration at which 50% GnRH-stimulated intracellular calcium flux was inhibited)
# Excerpt: 1) Cloning and Construction of the Vector Expressing Human GnRH Receptor1 (GnRHR1)
# Using cDNA deprived from human pituitary (BECTON DICKINSON) as a template, the DNA fragment coding 45 to 1115 bp of human GnRHR1 (Accession No. L03380), which was reported by Kakar et al., was amplified by PCR method and inserted into the multi-cloning site of pcDNA3.1(+) (Invitrogen). The DNA sequence inserted was perfectly matched to the previously reported sequence.
# 2) Preparation of HEK293 (Human Embryonic Kidney) Cells Expressing Human GnRH Receptor1
# The expression vector introduced human GnRHR1 gene was transfected into cultured HEK293 cells (medium : MEM, 10% FCS, containing antibiotics, non-essential amino acids and pyruvic acid) by means of lipofection with the use of Lipofectamine2000 (Invitrogen). After transfection, the cells were cultured for 2 days, and used for examinations.
# 3) Assay of GnRH Antagonizing Effect
# Antagonizing effect of compounds for human GnRHR1 was evaluated by change of calcium levels in GnRH-stimulated cells. After removing the culture medium of HEK293 cells transiently expressing human GnRHR1, cells were washed with 200 μL piper well of the washing buffer (Hank's Balanced Salt Solutions, 20 mM N-2-hydroxyethylpiperazine-N′-2-ethanesulfonic acid, 1.3 mM calcium chloride, 0.5 mM magnesium chloride, 0.4 mM magnesium sulfate). One hundred μL of the Ca^2+sensitive dye solution (FLIPR Calcium Assay Kit (Molecular Devices)) was added to the well, and the cells were incubated for 1 hour at 37° C., 5% CO2. Then, intracellular calcium levels were determined under the following condition by using FLEX STATION (Molecular Devices). In the equipment, which was warmed to 37° C., 50 μL of test compound diluted with the measurement buffer (the washing buffer with 0.1% Albumin bovine serum) was added to the well. After 1 minute, 50 μL of 5 nM GnRH was added to the well. The drug concentration, at which 50% GnRH-stimulated intracellular calcium flux was inhibited (IC50 value), was calculated using logit plot (Table 108).
# [2] = Assay for oral absorbability: plasma drug concentration in rats after intravenous (1 mg/kg) and oral (3 mg/kg) administration (Cmax, bioavailability, C360); type: in vivo; settings: SD rats; for blood concentration 6 hours after oral administration, sustainability (in words) / availability by oral administration (in words): oral 3 mg/kg; for blood concentration 6 hours after oral administration, sustainability (in words): 360 minutes, compared with Control compounds 1 and 2; for availability by oral administration (in words): compared with the compounds of Example 22 (sulfonamide) and Example 95 (amide); for Cmax / bioavailability: male, rat, plasma; for Cmax / C360 (plasma drug concentration at 360 minutes after administration): oral administration, 3 mg/kg; for Cmax: read-out: Cmax (maximum plasma drug concentration); for C360 (plasma drug concentration at 360 minutes after administration): class symbols; for bioavailability: oral 3 mg/kg vs intravenous 1 mg/kg
# Protocol: Assay for Oral Absorbability
# 1) Preparation of the Samples for Measurement of the Drug Concentration After Intravenous Injection to the Tail Vein
# As experimental animal, overnight fasted SD rats (Charles River, male, 7 weeks of age, 170-210 g) were used. One mg of a test compound was dissolved by adding 0.2 mL of N,N-dimethylacetoamide, 0.798 mL of saline and 0.002 mL of 2N NaOH, and then 1.0 mg/mL solution was prepared. The body weights of rats were measured, and the solution of the test compound was injected intravenously to the tail vein of unanesthetized rats at the dose of 1 mL/kg (1 mg/kg). The intravenous injection to the tail vein was performed with 26 G injection needle and 1 mL syringe. The sampling times for collection of blood were 2, 15, 60, 120, 240 and 360 minutes after the intravenous injection to the tail vein. The blood was centrifuged, and the plasma was used as the sample for measurement of the drug concentration in blood.
# 2) Preparation of the Samples for Measurement of the Drug Concentration After Oral Administration
# As experimental animal, overnight fasted SD rats (Charles River, male, 7 weeks of age, 170-210 g) were used. Three mg of a test compound was dissolved by adding 0.2 mL of N,N-dimethylacetoamide, 9.794 mL of 0.5% aqueous sodium methylcellulose solution and 0.006 mL of 2N NaOH, and then 0.3 mg/mL solution was prepared. The body weights of rats were measured, and the solution of the test compound was administered orally at the dose of 10 mL/kg (3 mg/kg). The oral administration was performed with gastric tube for rat and 2.5 mL syringe. The sampling times for collection of blood were 15, 30, 60, 120, 240 and 360 minutes after the oral administration. The blood was centrifuged, and the plasma was used as the sample for measurement of the drug concentration in blood.
# 3) Measurement of the Drug Concentration
# To 0.025 mL of the plasma obtained in 1) and 2) described above, 0.1 mL of an adequate internal standard material was added according to the usual method, and then deproteinization was performed by adding 0.875 mL of acetonitrile. After centrifugation, 0.005 mL of the supernatant was injected into LC-MS/MS. The drug concentration in plasma was measured by LC-MS/MS method under the conditions as follows. To 0.05 mL of the blank plasma were added the internal standard material and various test compounds adequately according to the usual method, similar operating described above was done, and then the standard curves were prepared.
# Each area under the plasma drug concentration-time curve by intravenous injection to the tail vein and oral administration of the test compound was estimated with WinNonlin Professional by Pharsight Corporation from the plasma drug concentration at each time obtained from the above mentioned method, and then the bioavailability (%) was calculated based on the following formula.
# Bioavailability (%)={[(Area under the plasma drug concentration-time curve by oral administration)/3]/(area under the plasma drug concentration -time curve by intravenous injection to the tail vein)}×100
# In the oral administration, the maximum plasma drug concentration (Cmax), bioavailability and the plasma drug concentration at 360 minutes after administration (C360) are shown in Tables 110 to 112.
# human GnRH receptor1 (GnRHR1), sequence (P30968 whole entry): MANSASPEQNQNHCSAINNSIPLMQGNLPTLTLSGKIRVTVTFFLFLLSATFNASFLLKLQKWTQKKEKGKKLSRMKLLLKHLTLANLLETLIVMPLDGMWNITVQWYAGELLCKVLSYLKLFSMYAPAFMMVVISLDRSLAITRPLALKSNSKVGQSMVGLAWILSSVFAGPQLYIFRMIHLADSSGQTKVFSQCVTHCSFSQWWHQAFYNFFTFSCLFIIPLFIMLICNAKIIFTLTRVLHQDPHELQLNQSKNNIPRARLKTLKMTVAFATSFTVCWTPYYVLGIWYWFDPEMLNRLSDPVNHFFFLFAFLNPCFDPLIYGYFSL
Structure (SMILES),IC50 [1],"blood concentration 6 hours after oral administration, sustainability (in words) [2]",availability by oral administration (in words) [2],Cmax [2],C360 (plasma drug concentration at 360 minutes after administration) [2],bioavailability [2]
Cc1cccc(N(C)S(=O)(=O)c2ccc(Cl)c(-n3c(=O)[nH]c4sccc4c3=O)c2)c1 [Example 17],101 nM,,,,,
COc1cc(F)c(-n2c(=O)[nH]c3csc(C(=O)O)c3c2=O)cc1CN(C)c1c(F)cccc1F [Example 420],29 nM,maintain their blood concentrations 6 hours after the oral administrations,more excellent availability,15200 ng/mL,B (B: 300 ng/mL to 1000 ng/mL),
O=c1[nH]c2sccc2c(=O)n1-c1cc(S(=O)(=O)N2CCCc3ccccc32)ccc1Cl [Example 3],80 nM,,,,,
"COc1cccc(F)c1C(C)Oc1ccc(F)c(-n2c(=O)[nH]c3csc(C(=O)O)c3c2=O)c1 (stereo not drawn) [Example 48, 5-Carboxy-3-{2-fluoro-5-[1-(2-fluoro-6-methoxyphenyl) -ethoxy]phenyl}[3,4-d]pyrimidine-2,4(1H,3H)-dione]",29 nM,,more excellent availability,14500 ng/mL,,65%
"O=C(O)c1scc2[nH]c(=O)n(-c3cc(S(=O)(=O)N4CCCc5ccccc54)ccc3Cl)c(=O)c12 [Example 22, 5-Carboxy-3-[2-chloro-5-(3,4-dihydroquinolin-1(2H)-yl-sulfonyl)phenyl]thieno[3,4-d]pyrimidine-2,4(1H,3H)-dione]",2 nM,,,342 ng/mL,,11%
COc1ccc(F)cc1C(C)(C)Sc1ccc(F)c(-n2c(=O)[nH]c3csc(C(=O)O)c3c2=O)c1 [Example 191],17 nM,,more excellent availability,13500 ng/mL,,
O=c1[nH]c2ccsc2c(=O)n1-c1cc(S(=O)(=O)N2CCCc3ccccc32)ccc1Cl [Example 2],199 nM,,,,,
CC(C)(Oc1ccc(Cl)c(-n2c(=O)[nH]c3csc(C(=O)O)c3c2=O)c1)c1ccccc1 [Example 271],,maintain their blood concentrations 6 hours after the oral administrations,more excellent availability,17600 ng/mL,A (A: >1000 ng/mL),
COCCOc1ccc(F)c(F)c1COc1ccc(F)c(-n2c(=O)[nH]c3csc(C(=O)O)c3c2=O)c1 [Example 367],15 nM,maintain their blood concentrations 6 hours after the oral administrations,more excellent availability,14100 ng/mL,A (A: >1000 ng/mL),
Cc1ccccc1COc1ccc(Cl)c(-n2c(=O)[nH]c3csc(C(=O)O)c3c2=O)c1 [Example 25],85 nM,,,,,
CN(C(=O)c1ccc(Cl)c(-n2c(=O)[nH]c3csc(C(=O)O)c3c2=O)c1)c1ccccc1 [Example 95],19 nM,,,322 ng/mL,,
"CNC(=O)c1scc2[nH]c(=O)n(-c3cc(S(=O)(=O)N4CCCc5ccccc54)ccc3Cl)c(=O)c12 [Example 31, 5-Methylcarbamoyl-3-[2-chloro-5-(3,4-dihydroquinolin-1(2H) -ylsulfonyl)phenyl]thieno[3,4-d]pyrimidine-2,4(1H,3H)-dione]",272 nM,,,,,
CC(C)(C(=O)c1ccc(Cl)c(-n2c(=O)[nH]c3csc(C(=O)O)c3c2=O)c1)c1ccccc1 [Example 146],10 nM,maintain their blood concentrations 6 hours after the oral administrations,more excellent availability,17900 ng/mL,A (A: >1000 ng/mL),
COc1cc(F)c(-n2c(=O)[nH]c3csc(C(=O)O)c3c2=O)cc1COc1c(OC)ccc(F)c1F [Example 414],42 nM,maintain their blood concentrations 6 hours after the oral administrations,more excellent availability,25600 ng/mL,A (A: >1000 ng/mL),
"CC(C)(c1ccccc1)S(=O)(=O)c1ccc(F)c(-n2c(=O)[nH]c3csc(C(=O)O)c3c2=O)c1 [Example 202, 5-Carboxy-3-[2-fluoro-5-(1-methyl-1-phenylethylsulfonyl) -phenyl]thieno[3,4-d]pyrimidine-2,4(1H,3H)-dione]",20 nM,maintain their blood concentrations 6 hours after the oral administrations,more excellent availability,1310 ng/mL,B (B: 300 ng/mL to 1000 ng/mL),
"COc1cc(F)c(-n2c(=O)[nH]c3csc(C(=O)O)c3c2=O)cc1OCc1c(OC)ccc(F)c1F [Example 233, 5-Carboxy-3-[2-fluoro-5-(2,3-difluoro-6-methoxybenzyloxy) -4-methoxyphenyl]thieno[3,4-d]pyrimidine-2,4(1H,3H)-dione]",15 nM,maintain their blood concentrations 6 hours after the oral administrations,more excellent availability,25000 ng/mL,A (A: >1000 ng/mL),
